The results in this text go back to patent US20080269266A1, “NOVEL COMPOUNDS 747” (ASTRAZENECA AB, priority 2007, published 2008).

For one experiment, the target named is T1, human IR (Homo sapiens, UniProt P06213).
T1 construct: expressed in transfected cells; host or cells: CHOT cells (CHO stably transfected with human IR)
Nature of the experiment: Inhibition of Insulin Receptor Phosphorylation in CHOT cells. The class given is cell-based. Conditions: for IC50: median, CHOT cells stimulated with 30 nM Insulin. The protocol:
This immunofluorescence end point cell assay measures the ability of a test compound to reduce the measured levels of IR phosphorylation after insulin stimulation in CHOT cells. CHOT cells are Chinese Hamster Ovary cells (CHO) stable transfected with human IR. CHOT cells are routinely cultured in Hams F12 growth medium supplemented with 200 ug/ml Geneticin, 2.5 mM HEPES, 2 mM L-Glutamine (Invitrogen Code no. 25030-024) and 10% (v/v) foetal bovine serum (FBS) in a 5% CO2 air incubator at 37° C.
To undertake the assay, the CHOT cells are seeded at 5×10^3 cells/well in Hams F12 medium plus 2.5 mM HEPES, 1% foetal calf serum and 2 mM L-Glutamine in 96-well black Packard View plates (PerkinElmer 6005182) and incubated at 37° C. (+5% CO2) in a humidified incubator. The following day, the plates are dosed with 10 μl of 10× concentrated compound (diluted from 10 mM stock in DMSO and Hams F12 without serum) and the plates are returned to a humidified 37° C. (+5% CO2) incubator for 30 minutes. […]
Following the compound treatment, the CHOT cells are stimulated with a final concentration of 30 nM Insulin (Sigma #I-9278) for 10 minutes at 37° C. […] Additionally, in-house antibodies raised against phospho IR were also used at a suitable titre determined for each batch. […]
The Green Fluorescent phospho IR-associated signal in each well was measured using an Acumen Explorer HTS Reader (TTP Labtech Ltd., Cambridge). Phospho IR-associated fluorescence emission can be detected at 530 nm following excitation at 488 nm. The instrument is a laser-scanning fluorescence microplate cytometer, which samples the well at regular intervals and uses threshold algorithms to identify all fluorescent intensities above the solution background without the need to generate and analyse an image. These fluorescent objects can be quantified and provide a measure of the phospho IR levels in cells. Fluorescence dose response data obtained with each compound was exported into a suitable software package (such as Origin) to perform curve fitting analysis. […]

Experiment [1] concerns the target T2, human cytochrome P450 (CYP) 1A2 (Homo sapiens, UniProt P05177).
T2 construct: made in house; host or cells: yeast cell lines (microsomal fractions)
T2 sequence (P05177 1-516): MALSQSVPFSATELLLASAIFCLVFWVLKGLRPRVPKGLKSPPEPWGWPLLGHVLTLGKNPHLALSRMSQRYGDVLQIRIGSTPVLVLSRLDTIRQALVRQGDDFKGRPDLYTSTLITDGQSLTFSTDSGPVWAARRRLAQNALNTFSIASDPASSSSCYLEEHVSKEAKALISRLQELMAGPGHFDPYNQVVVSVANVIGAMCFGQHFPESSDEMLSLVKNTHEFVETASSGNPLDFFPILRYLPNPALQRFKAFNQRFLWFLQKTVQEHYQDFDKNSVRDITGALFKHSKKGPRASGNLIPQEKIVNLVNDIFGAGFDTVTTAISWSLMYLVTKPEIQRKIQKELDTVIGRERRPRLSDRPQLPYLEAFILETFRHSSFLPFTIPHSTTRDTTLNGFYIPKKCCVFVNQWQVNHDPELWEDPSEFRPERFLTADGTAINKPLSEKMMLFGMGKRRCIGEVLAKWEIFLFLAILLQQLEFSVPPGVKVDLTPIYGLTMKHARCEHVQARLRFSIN
Nature of the experiment: Cytochrome P450 Inhibition Assay 1A2. The class given is in vitro ADME. Conditions: test compound final concentrations 0.1-10 μM; substrate CEC. On the procedure: The inhibitory potential (IC50) of test compounds against 5 human cytochrome P450 (CYP) isoforms (1A2, 2C9, 2C19, 3A4 and 2D6) was assessed using an automated fluorescent end point in vitro assay modified from Crespi (Crespi and Stresser, 2000). Microsomal subcellular fractions prepared from Yeast cell lines expressing each human CYP isoform were used as an enzyme source in this assay. The activity of the 5 major human CYPs was determined from the biotransformation of a number of coumarin substrates to fluorescent metabolites, in the presence of NADPH. […] Comparison of the fluorescence observed in the presence of varying concentrations of test compound with that seen in its absence allowed an IC50 value to be calculated. Stock solutions of each CYP, with its respective substrate, were prepared in phosphate buffer pH7.4 (see Table 1) and 178 μl was added to the well of a black solid, flat bottom, 300 μl 96 well is microtitre plate (Corning Costar). […] The appropriate solvent controls and substrate blanks were included in each experiment to assess control activity and identify any inherent fluorescence due to the test compounds. […] The plates were read on a fluorimeter (Spectrafluor Plus) at the appropriate excitation and emission wavelengths (listed in Table 2) and the percent activity, corrected for control, was plotted against the test compound concentration.

T1 sequence (P06213 28-1382): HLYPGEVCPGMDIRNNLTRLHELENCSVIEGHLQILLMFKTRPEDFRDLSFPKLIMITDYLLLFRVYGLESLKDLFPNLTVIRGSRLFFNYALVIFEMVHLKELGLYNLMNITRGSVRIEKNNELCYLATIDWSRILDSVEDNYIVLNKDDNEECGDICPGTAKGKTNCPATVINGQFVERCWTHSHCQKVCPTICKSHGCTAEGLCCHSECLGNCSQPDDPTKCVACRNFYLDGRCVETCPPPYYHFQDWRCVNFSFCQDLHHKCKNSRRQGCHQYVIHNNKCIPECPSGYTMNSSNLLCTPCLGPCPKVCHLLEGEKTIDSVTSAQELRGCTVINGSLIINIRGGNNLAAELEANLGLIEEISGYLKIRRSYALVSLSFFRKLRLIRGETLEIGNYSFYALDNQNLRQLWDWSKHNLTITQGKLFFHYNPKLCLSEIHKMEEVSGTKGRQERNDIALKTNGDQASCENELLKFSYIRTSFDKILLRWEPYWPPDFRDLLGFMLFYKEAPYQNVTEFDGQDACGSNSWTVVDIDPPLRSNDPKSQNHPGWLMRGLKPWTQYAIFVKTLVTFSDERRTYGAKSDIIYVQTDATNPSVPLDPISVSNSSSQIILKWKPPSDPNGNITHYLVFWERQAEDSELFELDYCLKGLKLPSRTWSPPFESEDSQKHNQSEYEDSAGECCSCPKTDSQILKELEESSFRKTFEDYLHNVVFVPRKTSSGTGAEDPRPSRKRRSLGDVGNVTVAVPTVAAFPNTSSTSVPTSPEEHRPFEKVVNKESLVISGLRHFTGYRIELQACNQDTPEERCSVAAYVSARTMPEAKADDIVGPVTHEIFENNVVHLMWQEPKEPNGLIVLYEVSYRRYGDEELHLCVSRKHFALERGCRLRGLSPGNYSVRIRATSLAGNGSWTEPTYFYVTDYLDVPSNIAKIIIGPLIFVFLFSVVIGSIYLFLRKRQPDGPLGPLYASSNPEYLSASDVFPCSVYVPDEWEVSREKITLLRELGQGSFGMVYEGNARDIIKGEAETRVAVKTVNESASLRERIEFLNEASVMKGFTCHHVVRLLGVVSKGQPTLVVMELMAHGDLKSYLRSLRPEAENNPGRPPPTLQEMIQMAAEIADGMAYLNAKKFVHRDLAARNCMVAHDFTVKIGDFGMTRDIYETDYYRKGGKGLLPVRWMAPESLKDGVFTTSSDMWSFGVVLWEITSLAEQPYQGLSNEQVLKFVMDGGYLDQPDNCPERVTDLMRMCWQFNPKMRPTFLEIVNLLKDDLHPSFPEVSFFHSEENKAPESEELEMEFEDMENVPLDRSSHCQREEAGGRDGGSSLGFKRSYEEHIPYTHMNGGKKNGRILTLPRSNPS

Usually IC50 stands for the point on the concentration scale where inhibition reaches its midpoint. On to `CCc1cc(Nc2cc(OC)nc(N3CCC[C@H]3c3cc(-c4ncccn4)no3)n2)n[nH]1` [Comparative Example A, (S)-6-Methoxy-2-{2-[3-(pyrimid-2-yl)isoxazol-5-yl]pyrrolidin-1-yl}-4-(5-ethyl-1H-pyrazol-3-ylamino)pyrimidine], for which the values for the IC50 (on human IR; in experiment [1]) were 3.25 nM and 1870 nM, respectively.
As to `COc1cc(Nc2cc(C)n[nH]2)nc(N2CCC[C@H]2c2cc(-c3ncccn3)no2)n1` [Example 1, (S)-6-Methoxy-2-{2-[3-(pyrimid-2-yl)isoxazol-5-yl]pyrrolidin-1-yl}-4-(5-methyl-1H-pyrazol-3-ylamino)pyrimidine], the “difference in the Inhibition of Insulin Receptor Phosphorylation assay” value at human IR (Example 1 compared with Comparative Example A) is on record as “ten-fold”. The figures for the IC50 (against human IR; in experiment [1]) were 35 nM and more than 10000 nM, respectively.
